# Data taken from patent publication US20250295679A1, “Compositions and Dosage Forms for Treatment of HPV Infection and HPV-Induced Neoplasia” (priority 2022, published 2025).
# Where two headings read alike, the source gives them in different places.
# How the values were obtained:
# [1] = Solubility in buffers, water and simulated vaginal fluid at 37° C.
# Description: About 4 mg of Compound I Pattern 1 was added into 2 mL of buffer solution.
# (§1) Solubility was tested in five media, pH 3.0 citrate buffer, pH 4.5 acetate buffer, pH 6.8 phosphate buffer, water, simulated vaginal fluid (pH 4.2) at 37° C. for 0.5 h and 2 h.
# The salt amount used is equivalent to 10 mg anhydrous free base. […] The obtained clear solutions were analyzed by pH meter for pH, and solubility was determined by observation.
# as §1
# [2] = Hygroscopicity by DVS at 25° C.; assay type: physicochemical; settings: for Desorption (%) Cycle 1 / Desorption (%) Cycle 2 / Sorption (%) Cycle 1 / Sorption (%) Cycle 2 / Water uptake / Desorp. (%) Cycle 1 / Desorp. (%) Cycle 2 / Sorp. (%) Cycle 1 / Sorp. (%) Cycle 2: DVS 25° C.; for XRPD after DVS test: 25° C.; for Water uptake: up to / in 95% RH
# Description: Hygroscopicity was investigated by DVS at 25° C., using the following method: • Method: 40-0-95-0-40% RH, dm/dt=0.002
# [3] = Bulk (accelerated) stability, one week, HPLC and XRPD; settings: for HPLC purity, Initial: initial chemical purity before storage; for Bulk (HPLC) Purity / Bulk Color: 1 week
# Description: Bulk stability: Accelerated stability experiments were conducted at 25° C./92% RH and 40° C./75% RH in an open container, 60° C. in a tight container for one week.
# Samples were characterized by XRPD and HPLC and inspected for color change.
# Accelerated stability experiments were conducted at 25° C./92% RH in an open container, at 40° C./75% RH in an open container, and at 60° C. in a tight container for one week.
# [4] = Ex vivo permeation and penetration across porcine vaginal tissue (Franz diffusion cell, IVPT); assay type: in vitro ADME; set-up: Concentration in vaginal tissue: unit not given here; settings: for Tissue penetration: porcine vaginal tissue, 0.1% Compound II gel, 1% and 3% ABI-1968 formulations
# Excerpt: FIG. 116 is an in vitro tissue permeation test in vaginal tissue comparing Compound II to ABI-1968. […] Bars B and C show the tissue penetration of a 0.1% Compound II gel in human cervical tissue. […] This may be a contributing factor to the performance of ABI-1968 in clinical studies. […] This is described in Example 41.
# Freshly harvested porcine vaginal tissue was procured from local slaughterhouse in an ice box. The vaginal tissue was cut open to expose the mucosal surface and tissue was cleaned by gentle flow of PBS pH 7.4. The porcine vaginal tissue was cut into circular portions (approximately 2 cm^2) with help of a […] punch.
# The circular portion of tissue was sandwiched between two chambers of a Franz diffusion cell with an active diffusion area of 1 cm^2, and the mucosal layer was exposed to the donor chambers. The resistance across porcine vaginal tissue was measured using a wave form generator to ensure the integrity of the tissue segment used for the permeation study. Porcine vaginal tissue with resistance of ≥3 KΩ·cm^2 was used for study. The receiver chamber was filled with 8 ml of 5% solutol PBS 7.4 pH, which was stirred at 600 rpm with a 3 mm magnetic stir bar and the temperature was maintained at 37° C. with a circulating water bath.
# The ˜200 mg of gel was filled into tared 1 mL syringe and gel was dispensed to donor chamber. The gel was spread on to mucosal surface with pre weighed applicator. After loading and spreading of the gel onto surface of mucosal surface, the weight of 1 mL syringe and applicator was noted to determine the exact amount of gel loaded into donor chamber.
# Time course (2 h, 4 h and 8 h) porcine vaginal permeation studies were performed. After loading gel, 500 μL samples were withdrawn from the receiver compartment at different time intervals and each time an equal volume of fresh receiver media was used to replace withdrawn samples. The sample withdrawn at each time interval were stored immediately in −20° C. until analysis. After 2, 4 and 8 h, the formulation was removed from the donor chamber with help of syringe and cleaned with cotton swab. The tissue was removed and washed gently with wash solution (50% methanol in water) 5 times and alternatively cleaning with cotton swab.
# An 8 mm punch of active diffusion area of washed porcine vaginal tissue was removed, weighed and transferred into a tube. This tube was immediately placed into dry ice for ˜15 min. After specified time, tissue was removed and placed in precooled dish. The tissue was minced into smaller pieces on a dish with a precooled surgical blade. The minced tissue was transferred to sample tubes and dish was rinsed with 1 ml of 5% solutol in PBS 7.4 pH and transferred to same tissue sample tube. These tubes were stored in −70° C. until analysis. […]
# [5] = Polymorph screening by equilibration in solvents; assay type: physicochemical
# [6] = 25° C., 92% RH, open container, one week
# [7] = BS1: solid state, 25° C./92% RH, open container
# [8] = BS2: solid state, 40° C./75% RH, open container
# [9] = BS3: solid state, 60° C., tight container
smiles,measurement,setting,value
CCOC(=O)C(C)NP(=O)(COCCn1cnc2c(OC)nc(N)nc21)OCc1ccccc1.CCOC(=O)C(C)NP(=O)(COCCn1cnc2c(OC)nc(N)nc21)OCc1ccccc1.O=C(O)C=CC(=O)O (mixture of isomers) [Compound I hemifumarate],Solubility 0.5 hrs,[1],>2000 µg/mL
same,Solubility 2 hrs,[1],>2000 µg/mL
same,Solubility 0.5 hrs,[1]; pH 3,>2000 µg/mL
same,Solubility 2 hrs,[1]; pH 3,>2000 µg/mL
same,Solubility 0.5 hrs,[1]; pH 4.2,>2000 µg/mL
same,Solubility 2 hrs,[1]; pH 4.2,>2000 µg/mL
same,Solubility 0.5 hrs,[1]; pH 4.5,>2000 µg/mL
same,Solubility 2 hrs,[1]; pH 4.5,>2000 µg/mL
same,Solubility 0.5 hrs,[1]; pH 6.8,>2000 µg/mL
same,Solubility 2 hrs,[1]; pH 6.8,>2000 µg/mL
same,pH at 2 hrs,"[1]; solution in simulated vaginal fluid (pH adjusted with 0.2N NaOH), 37° C.",(5.30)
same,Desorption (%) Cycle 1,[2]; 0% RH,0.13%
same,Desorption (%) Cycle 2,[2]; 0% RH,0.00%
same,Sorption (%) Cycle 1,[2]; 0% RH,0.13%
same,Sorption (%) Cycle 2,[2]; 0% RH,0.00%
same,Desorption (%) Cycle 1,[2]; 10% RH,0.36%
same,Desorption (%) Cycle 2,[2]; 10% RH,0.23%
same,Sorption (%) Cycle 1,[2]; 10% RH,0.34%
same,Sorption (%) Cycle 2,[2]; 10% RH,0.20%
same,Desorption (%) Cycle 1,[2]; 20% RH,0.56%
same,Desorption (%) Cycle 2,[2]; 20% RH,0.44%
same,Sorption (%) Cycle 1,[2]; 20% RH,0.53%
same,Sorption (%) Cycle 2,[2]; 20% RH,0.40%
same,Desorption (%) Cycle 1,[2]; 30% RH,0.79%
same,Desorption (%) Cycle 2,[2]; 30% RH,0.68%
same,Sorption (%) Cycle 1,[2]; 30% RH,0.73%
same,Sorption (%) Cycle 2,[2]; 30% RH,0.61%
same,Desorption (%) Cycle 1,[2]; 40% RH,1.04%
same,Desorption (%) Cycle 2,[2]; 40% RH,0.94%
same,Sorption (%) Cycle 1,[2]; 40% RH,0.96%
same,Sorption (%) Cycle 2,[2]; 40% RH,0.87%
same,Desorption (%) Cycle 2,[2]; 50% RH,1.26%
same,Sorption (%) Cycle 1,[2]; 50% RH,1.22%
same,Desorption (%) Cycle 2,[2]; 60% RH,1.68%
same,Sorption (%) Cycle 1,[2]; 60% RH,1.57%
same,Desorption (%) Cycle 2,[2]; 70% RH,2.25%
same,Sorption (%) Cycle 1,[2]; 70% RH,2.04%
same,Desorption (%) Cycle 2,[2]; 80% RH,3.14%
same,Sorption (%) Cycle 1,[2]; 80% RH,2.80%
same,Desorption (%) Cycle 2,[2]; 90% RH,4.84%
same,Sorption (%) Cycle 1,[2]; 90% RH,4.54%
same,Desorption (%) Cycle 2,[2]; 95% RH,6.87%
same,Sorption (%) Cycle 1,[2]; 95% RH,6.87%
same,XRPD after DVS test,[2]; after humidity cycle 40-0-95-0-40% RH,"No form change,"
same,Water uptake,[2],~6.9%
same,HPLC purity after storage,[3]; [6],97.0%
same,XRPD after storage,[3]; [6],No change
same,HPLC purity after storage,"[3]; 40° C., 75% RH, open container, one week",90.9%
same,HPLC purity after storage,"[3]; 60° C., tight container, one week",82.3%
same,"HPLC purity, Initial",[3]; listed as Compound I Hemifumarate Pattern 1,97.8%
same,"HPLC purity, Initial",[3]; listed as Compound I hemifumarate Pattern 1,97.8%
CCCCCCCCCCCCCCCCCCOCCOP(=O)(COCCn1cnc2c(=O)[nH]c(N)nc21)OCc1ccccc1 (centres unmarked) [ABI-1968],Concentration in vaginal tissue,"[4]; 3% dose, FIG. 116",< 15
same,Tissue penetration,[4]; FIG. 116,substantially smaller degree
same,Tissue concentration,"[4]; up to a 3% dose, Bar F and G in FIG. 116",< 15 ng/mg
CCOC(=O)[C@H](C)N[P@@](=O)(COCCn1cnc2c(OC)nc(N)nc21)OCc1ccccc1.O=C(O)/C=C/C(=O)O [Compound II],pH of solution at 2 hours,"[1]; ES1: pH 3.0, 100 mM citrate buffer, 37° C.",2.85
same,pH of solution at 2 hours,"[1]; ES2: pH 4.5, 50 mM acetate buffer, 37° C.",4.2
same,pH of solution at 2 hours,"[1]; ES3: pH 6.8, 50 mM phosphate buffer, 37° C.",6.47
same,pH of solution at 2 hours,"[1]; ES4: Water, 37° C.",2.87
same,pH of solution at 2 hours,"[1]; ES5: Simulated vaginal fluid (pH adjusted by 0.1N NaOH), 37° C.",5.79
same,Desorp. (%) Cycle 1,[2]; 0% RH,0.03%
same,Desorp. (%) Cycle 2,[2]; 0% RH,0.03%
same,Sorp. (%) Cycle 1,[2]; 0% RH,0.03%
same,Sorp. (%) Cycle 2,[2]; 0% RH,0.03%
same,Desorp. (%) Cycle 1,[2]; 10% RH,0.05%
same,Desorp. (%) Cycle 2,[2]; 10% RH,0.05%
same,Sorp. (%) Cycle 1,[2]; 10% RH,0.04%
same,Sorp. (%) Cycle 2,[2]; 10% RH,0.04%
same,Desorp. (%) Cycle 1,[2]; 20% RH,0.08%
same,Desorp. (%) Cycle 2,[2]; 20% RH,0.07%
same,Sorp. (%) Cycle 1,[2]; 20% RH,0.06%
same,Sorp. (%) Cycle 2,[2]; 20% RH,0.06%
same,Desorp. (%) Cycle 1,[2]; 30% RH,0.10%
same,Desorp. (%) Cycle 2,[2]; 30% RH,0.08%
same,Sorp. (%) Cycle 1,[2]; 30% RH,0.08%
same,Sorp. (%) Cycle 2,[2]; 30% RH,0.07%
same,Desorp. (%) Cycle 1,[2]; 40% RH,0.17%
same,Desorp. (%) Cycle 2,[2]; 40% RH,0.10%
same,Sorp. (%) Cycle 1,[2]; 40% RH,0.10%
same,Sorp. (%) Cycle 2,[2]; 40% RH,0.09%
same,Desorp. (%) Cycle 2,[2]; 50% RH,0.12%
same,Sorp. (%) Cycle 1,[2]; 50% RH,0.12%
same,Desorp. (%) Cycle 2,[2]; 60% RH,0.14%
same,Sorp. (%) Cycle 1,[2]; 60% RH,0.13%
same,Desorp. (%) Cycle 2,[2]; 70% RH,0.18%
same,Sorp. (%) Cycle 1,[2]; 70% RH,0.16%
same,Desorp. (%) Cycle 2,[2]; 80% RH,0.21%
same,Sorp. (%) Cycle 1,[2]; 80% RH,0.19%
same,Desorp. (%) Cycle 2,[2]; 90% RH,0.24%
same,Sorp. (%) Cycle 1,[2]; 90% RH,0.23%
same,Desorp. (%) Cycle 2,[2]; 95% RH,0.24%
same,Sorp. (%) Cycle 1,[2]; 95% RH,0.24%
same,Hygroscopicity,"[2]; DVS at 25° C., in words",slightly hygroscopic
same,XRPD after DVS test,[2]; after DVS 40-0-95-0-40% RH,No form change
same,XRPD after DVS test,"[2]; after humidity cycle 40-0-95-0-40% RH, listed as Compound II Pattern 1, monofumarate",No form change
same,XRPD after DVS test,"[2]; after humidity cycle 40-0-95-0-40% RH, monofumarate",does not change
same,Water uptake,[2],about 0.2%
same,Tissue penetration,[4]; FIG. 116,high tissue penetration
same,Crystal modification after 1 week equilibration at 25° C.,[5]; PS1: IPA,Compound II Pattern 1
same,Crystal modification after 1 week equilibration at 25° C.,[5]; PS2: Heptanes,Compound II Pattern 1
same,Crystal modification after 1 week equilibration at 25° C.,[5]; PS3: Water,Compound II Pattern 1
same,Crystal modification after 1 week equilibration at 25° C.,[5]; PS4: ACN,Compound II Pattern 2
same,Crystal modification after 1 week equilibration at 25° C.,[5]; PS5: MEK,Compound II Pattern 3
same,Crystal modification after 1 week equilibration at 25° C.,[5]; PS6: Acetone,Compound II Pattern 1
same,Crystal modification after 1 week equilibration at 25° C.,"[5]; PS7: IPA/heptanes (3/10, v/v)",Compound II Pattern 1
same,Crystal modification after 1 week equilibration at 25° C.,"[5]; PS8: water/ACN (2.9/97.1, v/v)",Compound II Pattern 2
same,Crystal modification after 1 week equilibration at 25° C.,"[5]; PS9: IPA/MTBE (1/3, v/v)",Compound II Pattern 1
same,Crystal modification after 1 week equilibration at 25° C.,"[5]; PS10: EA/toluene (1/3, v/v)",Compound II Pattern 1
same,Dissociation of the salt during equilibration experiments,"[5]; equilibration in solvents, 1 week, 25° C.",no dissociation was observed
same,Stability after exposure to the three conditions,"[3]; 25° C./92% RH open, 40° C./75% RH open, 60° C. tight container, one week",good physical and chemical stability
same,Bulk (HPLC) Purity,[3]; [7],99.5%
same,Bulk Color,[3]; [7],No change
same,Bulk (HPLC) Purity,[3]; [8],99.4%
same,Bulk Color,[3]; [8],No change
same,Bulk (HPLC) Purity,[3]; [9],99.7%
same,Bulk Color,[3]; [9],No change
same,"HPLC purity, Initial",[3],99.7%
